Data from patent US20140106354A1, “Method of Diagnosing Cancer” (GARVAN INSTITUTE OF MEDICAL RESEARCH, priority 2011, published 2014).

How the values were obtained:
Format in all cases: cell-based, human
A2780 cells = assay: Pharmacological reactivation of methylated genes by 5-Aza-dC, Affymetrix U133 plus 2 expression arrays, A2780; conditions: A2780, 5 μM, 24 hours
Description: (§1) Experiments were performed in triplicate using ovarian cancer cell lines A2780 and CaOV3, derived from primary Type II EOC. Cell lines were treated at 30% confluence with 5 μM and 2.5 μMrespectively (concentrations previously optimized to minimize cellular toxicity, data not shown), with the DNA methyltransferase inhibitor 5-aza-2′ deoxycytidine (5-Aza-dC), (Sigma Aldrich, St. Louis Mo., USA) for 24 hours. Cells were then expanded to 90% confluency, media changed every 24 hr before extracting RNA (RNeasy, Qiagen). As a positive control, re-expression and DNA demethylation for the methylated gene DLEC1 was verified by qPCR and clonal bisulphite sequencing.
(§2) Total RNA from A2780 and CaOV3 cell lines, plus and minus treatment with 5-Aza-dC was characterized on the Agilent bioanalyzer RNA nano chip (Agilent, Foster City Calif., USA) for an RNA integrity number (RIN) of >9.0, labeled and hybridized to Affymetrix human genome U133 plus 2 GeneChips essentially according to manufacturer's instructions. The GeneChip scans were analyzed by GCOS (Affymetrix) and resulting probeset intensities normalized by the robust multi-array average (RMA) method (Irizarry, et al., Biostatistics 4: 249-264, 2003). […] The data were normalized separately for each cell line and robust multichip average (RMA) values for analysis were imported into Genespring GX 7.3. Genes re-expressed by 5-Aza-dC were identified as “absent” (undetectable) in all three replicate untreated samples and “present” or “marginal” (detectable) in two of three replicate 5-Aza-dC treated samples.
(§3) Three steps were implemented to identify aberrantly silenced and methylated genes in EOC. First, to identify genes potentially silenced by DNA methylation, genome wide epigenetic reexpression profiles were generated for two ovarian cancer cell lines. […] Genes showing potential methylation-based silencing were identified if they were undetectable in the untreated cells, but re-expressed by 5-Aza-dC treatments. Using these criteria 947 and 1091 probesets were identified in A2780 and CaOV3 cells respectively, that were reactivated.

CaOV3 cells = assay: Pharmacological reactivation of methylated genes by 5-Aza-dC, Affymetrix U133 plus 2 expression arrays, CaOV3; conditions: CaOV3, 2.5 μM, 24 hours
Description: as §1, §2, §3

DLEC1 = assay: Positive control: re-expression and demethylation of DLEC1 (qPCR, clonal bisulphite sequencing); conditions: A2780 and CaOV3 cells treated with 5-Aza-dC
Description: as §1

Nc1ncn([C@H]2C[C@H](O)[C@@H](CO)O2)c(=O)n1 [5-Aza-dC, 5-aza-2′ deoxycytidine]
probesets reactivated (undetectable in untreated cells, re-expressed by 5-Aza-dC) (A2780 cells; HGU133 plus 2.0): 947 probesets | Fold Change 5-aza-dC vs (A2780 cells; ARMXC1 mRNA, probeset 218694_at): 1.19 | Fold Change 5-aza-dC vs (A2780 cells; HSPA2 mRNA, probeset 211538_s_at): 33.78 | Fold Change 5-aza-dC vs (A2780 cells; IL18 mRNA, probeset 206295_at): 1.20 | Fold Change 5-aza-dC vs (A2780 cells; LTBP2 mRNA, probeset 223690_at): 1.57 | Fold Change 5-aza-dC vs (A2780 cells; PAPLN mRNA, probeset 226435_at): 2.78 | Fold Change 5-aza-dC vs (A2780 cells; PARVA mRNA, probeset 222454_s_at): 1.78 | Fold Change 5-aza-dC vs (A2780 cells; PEG3 mRNA, probeset 209242_at): 3.87 | Fold Change 5-aza-dC vs (A2780 cells; PYCARD mRNA, probeset 221666_s_at): 3.72 | Fold Change 5-aza-dC vs (A2780 cells; SCIN1 mRNA, probeset 1552365_at): 1.28 | Fold Change 5-aza-dC vs (A2780 cells; SGNE1 mRNA, probeset 203889_at): 4.15 | Fold Change 5-aza-dC vs (A2780 cells; SOCS1 mRNA, probeset 210001_s_at): 4.80 | Fold Change 5-aza-dC vs (A2780 cells; SPOCK2 mRNA, probeset 202524_s_at): 1.41 | Fold Change 5-aza-dC vs (A2780 cells; ZNF177 mRNA, probeset 207417_s_at): 1.61 | Fold Change 5-aza-dC vs (A2780 cells; ZNF542 mRNA, probeset 239250_at): 2.35 | Fold Change 5-aza-dC vs (CaOV3 cells; BMP6 mRNA, probeset 206176_at): 1.25 | Fold Change 5-aza-dC vs (CaOV3 cells; CST6 mRNA, probeset 231248_at): 1.96 | probesets reactivated (undetectable in untreated cells, re-expressed by 5-Aza-dC) (CaOV3 cells; HGU133 plus 2.0): 1091 probesets | Fold Change 5-aza-dC vs (CaOV3 cells; ICAM4 mRNA, probeset 207194_s_at): 1.89 | Fold Change 5-aza-dC vs (CaOV3 cells; KLF4 mRNA, probeset 220266_s_at): 3.78 | Fold Change 5-aza-dC vs (CaOV3 cells; LOC134466 RNA, probeset 244289_at): 1.18 | Fold Change 5-aza-dC vs (CaOV3 cells; PTGER mRNA, probeset 213933_at): 1.32 | Fold Change 5-aza-dC vs (CaOV3 cells; TLE4 mRNA, probeset 204872_at): 1.20 | re-expression and demethylation of the methylated gene DLEC1 (DLEC1): induce re-expression and demethylation
